Patent US9233111B2, “Pyrrolo pyrimidine derivatives” (NOVARTIS AG, priority 2011, dated 2016)

biological target: full-length human recombinant BTK (Homo sapiens (Human), UniProt Q06187); experiment: Inhibition of Btk enzymatic activity (biochemical enzyme assay, Caliper); conditions: 30° C., 60 minutes
Experimental: The inhibitory activity of the present compounds against Btk was assessed in a biochemical enzyme assay. Assay plates in 384 well format were prepared with 8-point serial dilutions for the test compounds on a Thermo CatX workstation equipped with a Innovadyne Nanodrop Express. The assay plates were prepared by addition of 50 nl per well of compound solution in 90% DMSO. The kinase reactions were started by stepwise addition of 4.5 μl per well of peptide/ATP-solution (4 μM FITC-Ahx-[…]-NH2, 164 μM ATP) in kinase buffer (50 mM HEPES, pH 7.5, 1 mM DTT, 0.02% Tween20, 0.02% BSA, 0.6% DMSO, 10 mM beta-glycerophosphate, and 10 μM sodium orthovanadate, 18 mM MgCl2, 1 mM MnCl2) and 4.5 μl per well of enzyme solution (6.4 nM full-length human recombinant BTK) in kinase buffer. Kinase reactions were incubated at 30° C. for 60 minutes and subsequently terminated by addition of 16 μl per well of stop solution (100 mM HEPES pH 7.5, 5% DMSO, 0.1% Caliper coating reagent, 10 mM EDTA, and 0.015% Brij35). Kinase reactions were analyzed on a Caliper LC3000 workstation by separating phosphorylated and unphosphorylated peptides and kinase activities were calculated from the amounts of newly formed phospho-peptide. Inhibition data were calculated by comparison to control reactions without enzyme (100% inhibition) and without inhibitors (0% inhibition). The concentration of inhibitor required for 50% inhibition (IC50) was calculated from the inhibition in response to inhibitor concentrations.

Chain of full-length human recombinant BTK (Q06187 whole entry): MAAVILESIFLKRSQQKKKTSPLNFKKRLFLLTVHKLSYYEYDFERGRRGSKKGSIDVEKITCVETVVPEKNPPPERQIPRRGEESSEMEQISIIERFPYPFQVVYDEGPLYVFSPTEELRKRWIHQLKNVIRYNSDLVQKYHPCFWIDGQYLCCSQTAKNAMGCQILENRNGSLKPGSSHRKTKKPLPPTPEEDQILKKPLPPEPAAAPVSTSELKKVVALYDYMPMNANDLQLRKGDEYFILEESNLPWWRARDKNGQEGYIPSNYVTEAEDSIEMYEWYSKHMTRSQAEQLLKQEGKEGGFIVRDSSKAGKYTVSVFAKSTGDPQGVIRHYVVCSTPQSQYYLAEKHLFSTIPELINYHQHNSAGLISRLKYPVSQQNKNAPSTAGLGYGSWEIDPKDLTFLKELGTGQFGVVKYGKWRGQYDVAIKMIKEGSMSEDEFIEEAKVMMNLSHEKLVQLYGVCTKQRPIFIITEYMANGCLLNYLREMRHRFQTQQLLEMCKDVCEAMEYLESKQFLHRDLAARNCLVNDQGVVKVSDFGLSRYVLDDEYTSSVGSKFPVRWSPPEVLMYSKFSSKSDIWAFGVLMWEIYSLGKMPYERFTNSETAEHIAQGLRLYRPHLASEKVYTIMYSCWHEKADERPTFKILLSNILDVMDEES

SMILES	IC50 [nM]
Cc1c(NC(=O)c2ccc(OC(C)C)cc2)cc(F)cc1-c1ncnc2[nH]c(C3=CCN(C(=O)N(C)C)CC3)cc12 [Example 10, 4-{4-[5-Fluoro-3-(4-isopropoxy-benzoylamino)-2-methyl-phenyl]-7H-pyrrolo[2,3-d]pyrimidin-6-yl}-3,6-dihydro-2H-pyridine-1-carboxylic acid dimethylamide]	15
Cc1c(NC(=O)c2ccc(S(F)(F)(F)(F)F)cc2)cc(F)cc1-c1ncnc2[nH]c(C3=CCN(C(=O)N(C)C)CC3)cc12 [Example 11, 4-(4-{5-Fluoro-3-[4-pentafluorothio-benzoylamino]-2-methyl-phenyl}-7H-pyrrolo[2,3-d]pyrimidin-6-yl)-3,6-dihydro-2H-pyridine-1-carboxylic acid dimethylamide]	5
Cc1c(NC(=O)c2ccc3ccn(C)c3n2)cc(F)cc1-c1ncnc2[nH]c(C3=CCN(C(=O)N(C)C)CC3)cc12 [Example 14, 1-Methyl-1H-pyrrolo[2,3-b]pyridine-6-carboxylic acid {3-[6-(1-dimethyl-carbamoyl-1,2,3,6-tetrahydro-pyridin-4-yl)-7H-pyrrolo[2,3-d]pyrimidin-4-yl]-5-fluoro-2-methyl-phenyl}-amide]	16
Cc1c(NC(=O)c2ccc(N(C)C)cc2)cc(F)cc1-c1ncnc2[nH]c(C3=CCN(C(=O)N(C)C)CC3)cc12 [Example 15, 4-{4-[3-(4-Dimethylamino-benzoylamino)-5-fluoro-2-methyl-phenyl]-7H-pyrrolo[2,3-d]pyrimidin-6-yl}-3,6-dihydro-2H-pyridine-1-carboxylic acid dimethylamide]	17
Cc1c(NC(=O)c2ccc(C(C)(O)C(F)(F)F)cc2)cc(F)cc1-c1ncnc2[nH]c(C3=CCN(C(=O)N(C)C)CC3)cc12 (stereo not drawn) [Example 18, 4-(4-{5-Fluoro-2-methyl-3-[4-(2,2,2-trifluoro-1-hydroxy-1-methyl-ethyl)-benzoylamino]-phenyl}-7H-pyrrolo[2,3-d]pyrimidin-6-yl)-3,6-dihydro-2H-pyridine-1-carboxylic acid dimethylamide]	6
CC(=O)c1ccc(C(=O)Nc2cc(F)cc(-c3ncnc4[nH]c(C5=CCN(C(=O)N(C)C)CC5)cc34)c2C)cc1 [Example 19, 4-{4-[3-(4-Acetyl-benzoylamino)-5-fluoro-2-methyl-phenyl]-7H-pyrrolo[2,3-d]pyrimidin-6-yl}-3,6-dihydro-2H-pyridine-1-carboxylic acid dimethylamide]	23
CN(C)C(=O)N1CC=C(c2cc3c(-c4ccc(F)c(NC(=O)c5ccc(C6CC6)cc5)c4)ncnc3[nH]2)CC1 [Example 20, 4-{4-[3-(4-Cyclopropyl-benzoylamino)-4-fluoro-phenyl]-7H-pyrrolo[2,3-d]pyrimidin-6-yl}-3,6-dihydro-2H-pyridine-1-carboxylic acid dimethylamide]	6
CN(C)C(=O)N1CC=C(c2cc3c(-c4ccc(F)c(NC(=O)c5ccc(C(C)(C)CO)cc5)c4)ncnc3[nH]2)CC1 [Example 21, 4-(4-{4-Fluoro-3-[4-(2-hydroxy-1,1-dimethyl-ethyl)-benzoylamino]-phenyl}-7H-pyrrolo[2,3-d]pyrimidin-6-yl)-3,6-dihydro-2H-pyridine-1-carboxylic acid dimethylamide]	6
Cc1c(NC(=O)c2ccc(C(C)(C)O)cc2F)cc(F)cc1-c1ncnc2[nH]c(C3=CCOCC3)cc12 [Example 22, N-{3-[6-(3,6-Dihydro-2H-pyran-4-yl)-7H-pyrrolo[2,3-d]pyrimidin-4-yl]-5-fluoro-2-methyl-phenyl}-2-fluoro-4-(1-hydroxy-1-methyl-ethyl)-benzamide]	8
CC(C)(O)c1ccc(C(=O)Nc2cccc(-c3ncnc4[nH]c(C5=CCOCC5)cc34)c2CO)c(F)c1 [Example 23, N-{3-[6-(3,6-Dihydro-2H-pyran-4-yl)-7H-pyrrolo[2,3-d]pyrimidin-4-yl]-2-hydroxymethyl-phenyl}-2-fluoro-4-(1-hydroxy-1-methyl-ethyl)-benzamide]	12
Cc1c(NC(=O)c2ccc(C(C)(C)C)cc2)cc(F)cc1-c1ncnc2[nH]c(C3=CCS(=O)(=O)CC3)cc12 [Example 26, 4-tert-Butyl-N-{3-[6-(3,6-dihydro-1,1-dioxido-2H-thiopyran-4-yl)-7H-pyrrolo[2,3-d]pyrimidin-4-yl]-5-fluoro-2-methyl-phenyl}-benzamide]	35
Cc1c(NC(=O)c2ccc(C(C)(C)C)cc2)cc(F)cc1-c1ncnc2[nH]c(C3=CCC(O)CC3)cc12 (stereo not drawn) [Example 28, 4-tert-Butyl-N-{5-fluoro-3-[6-(4-hydroxy-cyclohex-1-enyl)-7H-pyrrolo[2,3-d]pyrimidin-4-yl]-2-methyl-phenyl}-benzamide]	46
Cc1c(NC(=O)c2ccc(C3CC3)cc2)cc(F)cc1-c1ncnc2[nH]c(C3=CCN(C(=O)N(C)C)CC3)cc12 [Example 29, 4-{4-[3-(4-Cyclopropyl-benzoylamino)-5-fluoro-2-methyl-phenyl]-7H-pyrrolo[2′3-d]pyrimidin-6-yl}-3,6-dihydro-2H-pyridine-1-carboxylic acid dimethylamide]	13
Cc1c(NC(=O)c2ccc(C3CC3)cc2)cc(F)cc1-c1ncnc2[nH]c(C3=CCN(C(=O)N4CCCC4)CC3)cc12 [Example 30, 4-Cyclopropyl-N-(5-fluoro-2-methyl-3-{6-[1-(pyrrolidine-1-carbonyl)-1,2,3,6-tetrahydro-pyridin-4-yl]-7H-pyrrolo[2,3-d]pyrimidin-4-yl}-phenyl)-benzamide]	6
Cc1c(NC(=O)c2ccc(S(F)(F)(F)(F)F)cc2)cc(F)cc1-c1ncnc2[nH]c(C3=CCN(C(=O)N4CCCC4)CC3)cc12 [Example 34, N-(5-Fluoro-2-methyl-3-{6-[1-(pyrrolidine-1-carbonyl)-1,2,3,6-tetrahydro-pyridin-4-yl]-7H-pyrrolo[2,3-d]pyrimidin-4-yl}-phenyl)-4-(pentafluoro-sulfanyl)-benzamide]	34

The next lines start with the values.

IC50 [nM]	SMILES
1	Cc1c(NC(=O)c2ccc(C3(F)CC3)cc2)cc(F)cc1-c1ncnc2[nH]c(C3=CCN(C(=O)N(C)C)CC3)cc12 [Example 1, 4-(4-{5-Fluoro-3-[4-(1-fluoro-cyclopropyl)-benzoylamino]-2-methyl-phenyl}-7H-pyrrolo[2′3-d]pyrimidin-6-yl)-3,6-dihydro-2H-pyridine-1-carboxylic acid dimethylamide]
2	Cc1c(NC(=O)c2ccc(N(C)C(C)C)cc2)cc(F)cc1-c1ncnc2[nH]c(C3=CCN(C(=O)N(C)C)CC3)cc12 [Example 4]
3	Cc1c(NC(=O)c2ccc3c(C)c[nH]c3c2)cc(F)cc1-c1ncnc2[nH]c(C3=CCN(C(=O)N(C)C)CC3)cc12 [Example 5, 3-Methyl-1H-indole-6-carboxylic acid {3-[6-(1-dimethylcarbamoyl-1,2,3,6-tetrahydro-pyridin-4-yl)-7H-pyrrolo[2,3-d]pyrimidin-4-yl]-5-fluoro-2-methyl-phenyl}-amide]
3	Cc1c(NC(=O)c2ccc(N3CCCCC3)cc2)cc(F)cc1-c1ncnc2[nH]c(C3=CCN(C(=O)N(C)C)CC3)cc12 [Example 7, 4-{4-[5-Fluoro-2-methyl-3-(4-piperidin-1-yl-benzoylamino)-phenyl]-7H-pyrrolo[2,3-d]pyrimidin-6-yl}-3,6-dihydro-2H-pyridine-1-carboxylic acid dimethylamide]
5	Cc1c(NC(=O)c2ccc(C3(C(F)(F)F)CC3)cc2)cc(F)cc1-c1ncnc2[nH]c(C3=CCN(C(=O)N(C)C)CC3)cc12 [Example 9, 4-(4-{5-Fluoro-2-methyl-3-[4-(1-trifluoromethyl-cyclopropyl)-benzoylamino]-phenyl}-7H-pyrrolo[2,3-d]pyrimidin-6-yl)-3,6-dihydro-2H-pyridine-1-carboxylic acid dimethylamide]
4	COCC(C)(C)c1ccc(C(=O)Nc2cc(F)cc(-c3ncnc4[nH]c(C5=CCN(C(=O)N(C)C)CC5)cc34)c2C)cc1 [Example 12, 4-(4-{5-Fluoro-3-[4-(2-methoxy-1,1-dimethyl-ethyl)-benzoylamino]-2-methyl-phenyl}-7H-pyrrolo[2,3-d]pyrimidin-6-yl)-3,6-dihydro-2H-pyridine-1-carboxylic acid dimethylamide]
4	COC(C)(C)c1ccc(C(=O)Nc2cc(F)cc(-c3ncnc4[nH]c(C5=CCN(C(=O)N(C)C)CC5)cc34)c2C)cc1 [Example 13, 4-(4-{5-Fluoro-3-[4-(1-methoxy-1-methyl-ethyl)-benzoylamino]-2-methyl-phenyl}-7H-pyrrolo[2,3-d]pyrimidin-6-yl)-3,6-dihydro-2H-pyridine-1-carboxylic acid dimethylamide]
2	Cc1c(NC(=O)c2ccc(C(C)(C)C)cc2)cc(F)cc1-c1ncnc2[nH]c(C3=CC[S+]([O-])CC3)cc12 (stereo not drawn) [Example 25, 4-tert-Butyl-N-{5-fluoro-2-methyl-3-[6-(3,6-dihydro-1-oxido-2H-thiopyran-4-yl)-7H-pyrrolo[2,3-d]pyrimidin-4-yl]-phenyl}-benzamide]
3	CC(=O)OCC(=O)N1CC=C(c2cc3c(-c4cc(F)cc(NC(=O)c5ccc(C6CC6)cc5)c4C)ncnc3[nH]2)CC1 [Example 31, Acetic acid 2-(4-{4-[3-(4 cyclopropyl-benzoylamino)-5-fluoro-2-methyl-phenyl]-7H-pyrrolo[2,3-d]pyrimidin-6-yl}-3,6-dihydro-2H-pyridin-1-yl)-2-oxo-ethyl ester]
